Measured values taken from patent publication US7763708B2, “Methods and compositions for modulating C5-a-mediated inflammatory responses” (Institute for Protein Science Co., Ltd., priority 2004, dated 2010).
“And” between values parts separate entries of the source, which are not always exact repeats. Equal entries are not always repeated. “Also recorded” adds a separate entry of the source. Ends that are not written are not given here.

Key:
C5a [1] = molecular target: T1, C5a (Homo sapiens, UniProt P01031); assay: Intracellular Ca++ mobilization in neutrophils triggered by C5a (calcium imaging); assay type: cell-based
T1 sequence (P01031 678-751 limits assumed): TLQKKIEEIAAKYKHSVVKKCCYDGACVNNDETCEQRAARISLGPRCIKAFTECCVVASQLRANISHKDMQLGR
Description: Neutrophils were isolated from fresh human blood with 0.2% EDTA as an anticoagulant. Whole blood was collected from a healthy volunteer (a collaborator of this study) via vein puncture. A 2.4 ml aliquot of blood was then layered onto 2 ml Mono-Poly Resolving Medium (Dainihon Seiyaku, Tokyo, Japan) in a centrifuge tube and centrifuged at 400 g for 20 min at room temperature. The polymorphonuclear leukocytes (neutrophils) were then harvested and the cell fraction was washed with Hanks' balanced salt solution (HBSS).
The isolated neutrophils were loaded with 2 μM Fura-2/AM (Molecular Probes, Eugene, Oreg.) mixed with 0.02% Pluronic F-127 (Molecular Probes) and 0.2% DMSO in HBSS for 40 min at 37° C. The suspension was agitated to prevent sedimentation. After loading, the cells were washed with HBSS twice and suspended in HBSS containing 0.3% BSA (HBSS/BSA). Approximately 1×10^6 cells in 900 μl HBSS/BSA were added to a poly-L-lysine-coated 35 mm Petri dish and allowed to attach to the bottom of the dish for 30 min. Changes in intracellular calcium concentrations in response to C5a or a mixture of peptides (C-peptides and C5a) were determined by monitoring the ratio of fluorescence light emission at 5I0 nm as a result of excitation at 340 and 380 nm at 37° C. using an ARGUS HiSCA calcium imaging system (Hamamatsu Photonics, Hamamatsu, Japan). The mixture of peptides and C5a was incubated in an Eppendorf tube on ice for 30 min in the HBSS solution and then applied to the cells after a 2 min baseline recording.
The effect of C-peptides on C5a function was analyzed by measuring Ca^++ mobilization using an ARUGUS HiSCA calcium imaging system. Administration of 0.7 nM recombinant human C5a (RhC5a) induced a transient increase in the level of intracellular Ca^++ of human neutrophils (FIG. 3a). The level of this activation was about 50% of the maximum achieved with higher concentrations of C5a. A mixture of C-peptide and C5a was incubated in an Eppendorf tube on ice for 30 min in the HBSS solution and then applied to the cells. […]

ICR mice = assay: Lethal shock of mice induced by intravenous CAWS (Candida albicans water soluble extract); assay type: in vivo, mouse
Description: (§1) Within one exemplary embodiment illustrating construction of useful C5a-modulatory peptide analogs and mimetics from a direct C5a complement peptide (or reference C5a-modulatory peptide sequence), an acetylated derivative of Pep-A (A-Pep-A) was constructed and tested for use within the methods and compositions of the invention. A-Pep-A is a peptide with the same sequence as that of Pep-A with acetylated alanine at the amino-terminal amino acid. Effect of A-Pep-A was tested on the lethal shock of mice induced by intravenous administration of CAWS (Candida albicans water soluble extract). […] ICR mice were injected with 4 mg/kg of A-Pep-A intraperitonally (i.p.) or intravenously (i.v.) 10 min before i.v. challenge with […] 100 μg CAWS. […] Effect of A-Pep-A was also evaluated on the skin reaction of rats. As an indicator dye of vascular exudation, rats were i.v. injected with 0.5 ml of Evans Blue (8 mg/ml in saline) 30 min before intradermal (i.d.) injection of 5 μg 512 (anti-Crry monoclonal antibody) together with Pep-A, A-Pep-A of saline control).

skin reaction of rats = assay: Skin reaction of rats: Evans Blue exudation after intradermal 5I2 (anti-Crry mAb); assay type: in vivo, rat
Description: as §1, with “As an indicator dye of vascular exudation, rats were i.v. injected with 0.5 ml of Evans Blue (8 mg/ml in saline) 30 min before intradermal (i.d.) injection of 5 μg 512 (anti-Crry monoclonal antibody) together with Pep-A, A-Pep-A of saline control).” left out

[2] = system: Rat Lethal Shock Model (C5a-mediated); assay: Rat lethal shock induced by anti-Crry antibody following LPS priming; assay type: in vivo
Description: Administration of anti-rat Crry mAb (5I2) (Takizawa et al., J. Immunol. 152:3032, 1994) induces lethal shock in rats primed with a trace amount of lipopolysaccharide (LPS) (Matsuo et al., J. Exp. Med. 180:1619, 1994; Mizuno et al., J. Immunol. 162:5477, 1999). With this model, all rats sensitized with 0.05 mg/kg of LPS died within 30 min of injection of mAb 512. Male Wistar rats weighing about 250 g were purchased from Chubu Kagaku Shizai (Nagoya, Japan) and were allowed free access to food and water. Each rat was injected with 0.05 mg/kg of LPS, prepared from a phenol extraction of Salmonella typhosa (Sigma Chemical Co., St. Louis, Mo.) in 250 μl saline. Then, 0.75 mg/kg of 5I2 was administered 20 h later. Ten minutes before the injection of 5I2, saline or C-peptides in saline were injected. All injections were intravenously administered through the tail vein. Animal experiments were carried out according to Nagoya City University Guideline for the Care and Use of Experimental Animals and approved by the Nagoya City University Graduate School of Medical Sciences Animal Care Committee.
Administration of 0.75 mg/kg anti-rat Crry monoclonal antibody (Takizawa et al., J. Immunol. 152:3032, 1994) induces rapid lethal shock in rats primed with 0.05 mg/kg of LPS 20 h earlier (Matsuo et al., J. Exp. Med. 180:1619, 1994; Mizuno et al., J. Immunol. 162:5477, 1999). […] In order to investigate the inhibitory effect of the C-peptides in this model, we injected rats with saline (for the control) or C-peptides in 250 μl of saline 10 min before the 5I2 injection. All rats injected with saline died within 30 min (Table 1). However, all rats injected with 4 mg/kg of Pep-A survived. […] Some of the surviving rats stopped breathing briefly in the first 1 or 2 min after injection of 5I2, but were soon breathing again and about 20-40 min later began moving.

[3] = system: TGW human neuroblastoma cells bearing C5aR; assay: Patch clamp measurement of inward ion current pulses induced by PL37-MAP; assay type: cell-based; settings: 500 nM PL37-MAP
Description: The measurements were carried out on TGW human neuroblastoma cells bearing C5aR. Cells were voltage-clamped at room temperature at a holding potential of −70 mV using a whole cell clamp configuration. The instruments used for electrophysiology were as follows: an Axopatch 200-A patch clamp amplifier, a Digidata-1200 data acquisition system and pCLAMP 6.02 software from Axon Instruments Inc., (Foster City, Calif.). The head stage of the amplifier was fitted to an MHW-3 hydraulic manipulator manufactured by Narishige Inc. (Tokyo, Japan); and the cells were visualized using an Olympus IMT-2 invert microscope. Data acquisition and analysis were performed using an IBM compatible personal computer. Patch electrodes (OD=1.5 mm, thin wall, Garner Glass Co., Claremont, Calif.) were pulled with a PP-83 puller and polished with an MF-83 microforge (Narishige Inc). The resistance of patch electrodes was 8-10 MΩ. The solutions used were as follows: an extracellular solution (10 mM Hepes, 140 mM NaCl, 5 mM KCI, 2 mM CaCl2, 2 mM MgCl2, 10 mM glucose, pH=7.34) and an intracellular pipette solution (10 mM Hepes, 110 mM KCl, 15 mM NaCl, 0.1 mM CaCl2, 2 mM MgCl2, 1 mM EGTA, pH 7.25). […]
Inward calcium current pulses detected by a patch clamp assay were evoked when TGW cells were exposed to 500 nM PL37-MAP (FIG. 2a). […]

C5a [4] = molecular target: T1, C5a; assay: Surface plasmon resonance (Biacore) binding of C-peptides to immobilized C5a; set-up: Complement anaphylatoxin C5a is a 74-amino acid peptide generated from the fifth component of complement (C5); settings: PBS, 25° C., 10 μl/min, EA-blocked cell subtracted
Description: (§2) Binding interactions between PL37 or C5a with C-peptides were evaluated using surface plasmon resonance (SPR) technology with the Biacore system. PL37 and C5a were covalently immobilized on the CM5 sensor chip by amine coupling methods using N-ethyl-N-(dimethylaminopropyl)carbodiimide/N-hydroxysuccinimide (EDC/NHS) according to the manufacturer's instructions. We activated the surface of the CM5 sensor chip with EDC/NHS for 20 min before injection with PL37-MAP (200 μg/ml in 10 mM sodium carbonate buffer, pH 8.5, over flow cell 2) or C5a (100 μg/ml in 10 mM acetate buffer, pH 5, over flow cell 3). Afterwards, excess NHS was deactivated for 20 min with 1 M ethanolamine hydrochloride (EA), pH 8.5. The reference flow cell was activated with EDC/NHS, and blocked with EA. Coupling was performed at a flow rate of 5 μl/min at 25° C. in PBS. Analyte (30 μl of C-peptide A or B) was injected at 10 μl/min at 25° C. in PBS. Binding interactions were determined by passing samples simultaneously over both the EA-blocked cell and the flow cell with immobilized PL37 or C5a so as to obtain units of resonance response (RU) by subtraction of the background using Biacore software (BIA evaluation).
Binding of C-peptides to C5a was also examined. C5a was covalently coupled to a CM5 sensor chip resulting in a net increase of 5,770 RU. […]

PL37-MAP = PL37-MAP (Homo sapiens, UniProt P01031); assay: Surface plasmon resonance (Biacore) binding of C-peptides to immobilized PL37-MAP; settings: PBS, 25° C., 10 μl/min, EA-blocked cell subtracted
Description: as §2
The Biacore instrument which uses SPR technology measures association and dissociation in real time of an unlabeled analyte with an immobilized ligand. […]

[5] = 4 mg/kg i.v. 10 min before anti-Crry mAb

A-Pep-A: Peptide with the same sequence as Pep-A with acetylated alanine at the amino-terminal amino acid (Ac-ASGAPAPGPAGPLRPMF)
Inhibition of C5a-triggered Ca++ mobilization (C5a [1]; 1 nM C5a, 350 nM peptide, human neutrophils (FIG. 5)): completely inhibited; also recorded: much stronger effect than Pep-A | Dead/total (ICR mice; 4 mg/kg i.p., CAWS 100 μg/mouse): 3/3 | Dead/total (ICR mice; 4 mg/kg i.p., CAWS 200 μg/mouse): 3/3 | Dead/total (ICR mice; 4 mg/kg i.v., CAWS 100 μg/mouse): rescued half of mice | Dead/total (ICR mice; 4 mg/kg i.v., CAWS 100 μg/mouse, listed as A-PepA): 2/4 | Dead/total (ICR mice; 4 mg/kg i.v., CAWS 200 μg/mouse): 3/3 | Blue spots at 2 h (skin reaction of rats; 5I2 2.5 μg + peptide 40 μg i.d., spots measured from reverse side of removed skin): 3 +/− 1 | Inhibition of dye exudation / skin inflammation (skin reaction of rats; summary of Table 3): suppressed the dye exudation

ASGAPAPGPAGPLRPMF [Pep-A, ASGAPAPGPAGPLRPMF]
Time in which peptide had been degraded in vivo ([2]; rat, inferred from loss of effect at 30 min pre-dosing): ≤ 30 min | Harmful / side effects of the peptide in rats ([2]; rats injected with Pep-A (LPS sensitized, without anti-Crry mAb)): survived with no harmful effect; also recorded: without any noticeable deleterious side effects

ASTAPARAGLPRLPKFF [Pep-B]
Inhibition of C5a-triggered Ca++ mobilization (C5a [1]; 0.7 nM C5a, 70 nM C-peptide, human neutrophils): failed to cause inhibition; also recorded: no inhibition | Inhibition of C5a-triggered Ca++ mobilization (C5a [1]; 0.7 nM C5a, 700 nM C-peptide, human neutrophils): failed to cause inhibition; also recorded: no inhibition | Inhibition of inward ion current pulse evoked by PL37-MAP ([3]; 50 μM C-peptide): did not have any effect; also recorded: did not block | Binding to C5a-coupled flow cell (C5a [4]): did not | Survival rate (%) [2, 5]: 0% | Surviving/total number of rats [2, 5]: died and 0/4 | Binding to PL37-MAP-coupled flow cell (PL37-MAP): did not

PL37-MAP: PL37 (C5a fragment aa 37-53, RAARISLGPRCIKAFTE, SEQ ID NO: 2) in multiple antigenic peptide form (also: multiple antigenic peptide form on lysine core) [reference compound]
Amplitude of induced inward current pulses [3]: 500 pA
